Measured values reported in PubChem BioAssay AID623936 (Southern Research Specialized Biocontainment Screening …, 2012).

Tested on: Vero 76 cells viability (cytotoxicity)
Test: Vero 76 cell cytotoxicity, dose response, cytotoxicity control, set 4 (AID 623936)

Structure (SMILES): CN(C(=O)Cc1cccs1)c1nc2c(s1)CCCC2
- CC50: 18.5 µM
